Measured values published in US12012415B2, “Compositions and methods for the diagnosis, treatment and prevention of neoplastic and neurological disorders” (AscentGene, Inc., priority 2018, dated 2024).

Legend:
[1] = system: NR2A, NR2B, PSD-95 and SYP; experiment: Western blot of synaptic proteins in hippocampal fractions, Aβ1-42 AD rat model; format: in vivo, rats
Experimental: (§1) Aβ1-42 (Sigma-Aldrich, St. Louis, MO, USA;) was dissolved in double-distilled water at the concentration of 5 μg/μl, and incubated at 37° C. for one week before surgery. The rats were randomly divided into four groups as Sham (n=8), Sham+AG-1601 (n=8), Aβ1-42 (n=8) and Aβ1-42+AG-1601 (n=8). The Alzheimer's disease rat models were established by intracerebroventricular (i.c.v.) injection of Aβ1-42 aggregates. The animals were anesthetized with intraperitoneal injection of pentobarbital sodium (50 mg/kg) and placed in a stereotaxic apparatus (Narishige, Japan). The head skin of the rat was opened and two small holes were drilled on both sides of skull following the coordinates: 0.8 mm posterior to bregma, +1.4 mm lateral to sagittal suture, 4.0 mm beneath the surface of brain. Aβ1-42 (2.0 μl per side) was injected bilaterally into the lateral ventricles through micro-syringe. The needle was taken out after 5 minutes of the injection to ensure the aggregates were infused completely. Rats in the Sham group underwent the same operational process, but same volumes of double-distilled water were injected instead of Aβ1-42. After surgery, all rats were injected with penicillin (100,000 U) in the hindquarter muscle to prevent infection. The animals of Sham+AG-1601 and Aβ1-42+AG-1601 groups were intravenous injection with AG-1601 (1 mg/kg), while the same volume vehicle was implemented for the other groups every day for 14 days after one week of the postoperative recovery.
Three rats of each group were randomly selected to be sacrificed and their hippocampal tissues were immediately removed at 0° C. and stored at minus 80° C. For subcellular fractionation, 100- to 200-mg weight rat hippocampal tissue was used. The procedure has been described (Yang et al., 2017). The tissues were homogenized for 30 s in 500 μl TEVP buffer containing 320 mM sucrose and the homogenate was obtained. The homogenate (H) was centrifuged at 900×g for 10 min at 4° C., and the supernatant (S1) was centrifuged for 20 min at 10000×g at 4° C. to obtain the cytosolic/light membrane fraction (S2) and the crude synaptosomal fraction pellet (P2). The pellet was resuspended in TEVP buffer containing 35.6 mM sucrose solution and then centrifuged at 25,000×g for 20 min at 4° C. The supernatant was stored at minus 80° C. and referred as the synaptic vesicular fraction (LS1). The pellet, synaptic plasma membranes (LP1), was resuspended in TEVP buffer containing 1% Triton X-100 and centrifuged at 330,000×g for 30 min at 4° C. The supernatant referred as Triton X-100-soluble fraction (TSF) was stored at minus 80° C. The final pellet, the Triton X-100-insoluble fraction (TIF), was homogenized in TEVP buffer containing 1% SDS.
The concentration of every component was measured by the BCA protein assay kit (Beyotime Biotechnology, China). The components were finally boiled with 4× loading buffer at 100° C. for 15 min and stored at minus 80° C. for Western blot assay.
The total homogenate (H) and synaptosomal fractions were analyzed. Equal amounts of 20 μg from each sample were separated via 10% or 13% SDS-PAGE gels and subsequently transferred onto PVDF membranes (Millipore, USA). The membranes were blocked with 5% nonfat dry milk for 1 h at room temperature and then incubated with primary antibodies (Anti-synaptophysin, 1: 1000, Abcam; Anti-NR 2A, 1: 2000, Abcam; Anti-NR 2B, 1: 2000, Abcam; Anti-PSD-95, 1: 2000, Abcam; Anti-CREB, 1: 2000,Abcam; Anti-CREB phosphorylation, 1: 2000, Abcam; Anti-SIRT1, 1: 2000, Santa Cruz Biotechnology; Anti-β-actin, 1:5000, Santa Cruz Biotechnology) overnight at 4° C. Membranes were then incubated for 1 h at room temperature with horseradish peroxidase-conjugated secondary antibodies (Promega). After washing with TBST buffer, signals were visualized with the HRP substrate (Millipore, USA) and detected with a chemiluminescence kit (Tanon 5500, Tanon Science & Technology, China). The gray-scale value of protein band was quantified by NIH Image J program. […]

[2] = system: dendritic spines of the CA1 pyramidal cells; experiment: Golgi-Cox staining of dendritic spines, Aβ1-42 AD rat model; format: in vivo, rats; conditions: vs Aβ1-42 group
Experimental: as §1, with “Rats in the Sham group underwent the same operational process, but same volumes of double-distilled water were injected instead of Aβ1-42. After surgery, all rats were injected with penicillin (100,000 U) in the hindquarter muscle to prevent infection. The animals of Sham+AG-1601 and Aβ1-42+AG-1601 groups were intravenous injection with AG-1601 (1 mg/kg), while the same volume vehicle was implemented for the other groups every day for 14 days after one week of the postoperative recovery.” left out
Golgi-Cox staining method that performed according to the previously described protocol was used to determine the density of apical dendritic spines of the CA1 pyramidal cells in this study (Zhang et al., 2016). […] Six neurons in the CA1 region of hippocampus per animal were analyzed. The average dendritic spine density per 10 μm of dendritic length was calculated for each animal.

[3] = total homogenate (H), vs Aβ1-42 group

`C=CC1=C(C)c2cc3[nH]c(cc4nc(cc5[nH]c(cc1n2)c(C)c5C=C)C(C)=C4CCC(=O)O)c(CCC(=O)NCCCc1ccccc1)c3C` [AG-1601, 3-(2,8,13,18-tetramethyl-3-(3-oxo-3-((3-phenylpropyl)amino)propyl)-12,17-divinylporphyrin-7-yl)propanoic acid] was tested, and the NR2A level ([1]; TIF fraction, vs Aβ1-42 group) was “increased”, the NR2B level ([1]; TIF fraction, vs Aβ1-42 group) was “increased” and the PSD-95 level ([1]; TIF fraction, vs Aβ1-42 group) was “increased”. For the same compound, the SYP level ([1]; TSF fraction, vs Aβ1-42 group) was “also increased”, the SYP expression ([1]; homogenates of hippocampal tissues, vs Aβ42 group) was “this effect was overcome” and the NR2A level [1, 3] was “increased”. The NR2B level [1, 3] was “increased”, the PSD-95 level [1, 3] was “this effect was overcome” and the PSD-95 level ([1]; total homogenate (H), vs Aβ1-42 group, listed as AG-1061) was “increased”. The “density of dendritic spines in the CA1 region” value [2] was “marked reversal of the dendritic spine loss”.
